Data from ChEMBL document CHEMBL1201862, “PubChem BioAssay data set” (2004).
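1) Cells in 96-well plates. 2) Compound, 48 h, 5 concentrations. 3) Linear interpolation between surrounding doses. 4) Unreached endpoint = highest concentration. GI50 marks 50% less growth.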 Activity calls are given as the source filed them. Rule as the data show it: active = GI50 up to about 1.1 µM and inactive = higher.

Assays:
Assay in all cases: NCI anticancer screen, dose series, 48 h
NCI/ADR-RES = test system: NCI/ADR-RES
ACHN = test system: ACHN
HOP-62 = test system: HOP-62
MOLT-4 = test system: MOLT-4
HCT-15 = test system: HCT-15
Malme-3M = test system: Malme-3M
M14 = test system: M14
NCI-H226 = test system: NCI-H226
SN12C = test system: SN12C
CAKI-1 = test system: CAKI-1
OVCAR-5 = test system: OVCAR-5
SK-OV-3 = test system: SK-OV-3
HCC 2998 = test system: HCC 2998
T47D = test system: T47D
PC-3 = test system: PC-3
RPMI-8226 = test system: RPMI-8226
SNB-75 = test system: SNB-75
A498 = test system: A498
UO-31 = test system: UO-31
OVCAR-3 = test system: OVCAR-3
HCT-116 = test system: HCT-116
EKVX = test system: EKVX
K562 = test system: K562
BT-549 = test system: BT-549
NCI-H23 = test system: NCI-H23
UACC-62 = test system: UACC-62
DU-145 = test system: DU-145
COLO 205 = test system: COLO 205
OVCAR-4 = test system: OVCAR-4
SK-MEL-5 = test system: SK-MEL-5
UACC-257 = test system: UACC-257
MDA-N = test system: MDA-N
SK-MEL-28 = test system: SK-MEL-28
SF-268 = test system: SF-268
KM12 = test system: KM12
NCI-H522 = test system: NCI-H522
SK-MEL-2 = test system: SK-MEL-2
Hs-578T = test system: Hs-578T
U-251 = test system: U-251
A549 = test system: A549
OVCAR-8 = test system: OVCAR-8
SW-620 = test system: SW-620
CCRF-CEM = test system: CCRF-CEM
MDA-MB-435 = test system: MDA-MB-435
RXF 393 = test system: RXF 393
LOX IMVI = test system: LOX IMVI
HT-29 = test system: HT-29
MDA-MB-231 = test system: MDA-MB-231
NCI-H460 = test system: NCI-H460
TK-10 = test system: TK-10
786-0 = test system: 786-0
SF-295 = test system: SF-295
SNB-19 = test system: SNB-19
IGROV-1 = test system: IGROV-1
MCF7 = test system: MCF7
SF-539 = test system: SF-539
HL-60 = test system: HL-60

Measured: GI50

CSc1nc(Nc2ccccc2Cl)c2c(N)nn(C)c2n1
> 100 µM: HCT-15
inactive: NCI/ADR-RES 69.5 µM | ACHN 13.1 µM | HOP-62 27 µM | MOLT-4 > 100 µM | Malme-3M > 100 µM | M14 > 100 µM | NCI-H226 > 100 µM | SN12C > 100 µM | CAKI-1 > 100 µM | OVCAR-5 > 100 µM | SK-OV-3 > 100 µM | HCC 2998 > 100 µM | T47D 18.7 µM | PC-3 > 100 µM | RPMI-8226 > 100 µM | SNB-75 > 10 µM | A498 > 100 µM | UO-31 > 100 µM | OVCAR-3 > 100 µM | HCT-116 > 100 µM | EKVX 24.4 µM | K562 > 100 µM | BT-549 > 100 µM | NCI-H23 > 100 µM | UACC-62 > 100 µM | DU-145 > 100 µM | COLO 205 > 100 µM | OVCAR-4 > 100 µM | SK-MEL-5 > 100 µM | UACC-257 > 100 µM | MDA-N > 100 µM | SK-MEL-28 > 100 µM | SF-268 77.8 µM | KM12 > 100 µM | NCI-H522 75.2 µM | SK-MEL-2 > 100 µM | Hs-578T 17 µM | U-251 > 100 µM | A549 > 100 µM | OVCAR-8 16.9 µM | SW-620 > 100 µM | CCRF-CEM > 100 µM | MDA-MB-435 > 100 µM | RXF 393 47.2 µM | LOX IMVI 16 µM | HT-29 > 100 µM | MDA-MB-231 28.3 µM | NCI-H460 9.51 µM | TK-10 > 100 µM | 786-0 82 µM | SF-295 > 100 µM | SNB-19 > 100 µM | IGROV-1 > 100 µM

Cc1ccc(C(=O)Nc2ccc(CP(=O)(O)O)cc2CP(=O)(O)O)cc1NC(=O)c1cccc(N)c1
inactive: MCF7 > 100 µM | NCI/ADR-RES > 100 µM | ACHN > 100 µM | HOP-62 > 100 µM | MOLT-4 > 100 µM | Malme-3M > 100 µM | SF-539 > 100 µM | M14 > 100 µM | NCI-H226 > 100 µM | SN12C > 100 µM | CAKI-1 > 100 µM | OVCAR-5 > 100 µM | SK-OV-3 > 100 µM | HCC 2998 > 100 µM | T47D > 100 µM | PC-3 > 100 µM | RPMI-8226 > 100 µM | SNB-75 > 100 µM | A498 > 100 µM | UO-31 > 100 µM | OVCAR-3 > 100 µM | HCT-116 > 100 µM | EKVX > 100 µM | K562 > 100 µM | BT-549 > 100 µM | NCI-H23 > 100 µM | UACC-62 > 100 µM | DU-145 > 100 µM | HL-60 > 100 µM | COLO 205 > 100 µM | OVCAR-4 > 100 µM | SK-MEL-5 > 100 µM | UACC-257 > 100 µM | MDA-N > 100 µM | SK-MEL-28 > 100 µM | SF-268 > 100 µM | KM12 > 100 µM | NCI-H522 > 100 µM | SK-MEL-2 > 100 µM | Hs-578T > 100 µM | U-251 > 100 µM | A549 > 100 µM | OVCAR-8 > 100 µM | SW-620 > 100 µM | CCRF-CEM > 100 µM | MDA-MB-435 > 100 µM | RXF 393 > 100 µM | LOX IMVI > 100 µM | HT-29 > 100 µM | MDA-MB-231 > 100 µM | NCI-H460 > 100 µM | TK-10 > 100 µM | 786-0 > 100 µM | SF-295 > 100 µM | IGROV-1 > 100 µM
> 100 µM: HCT-15
